Source: US20260137711A1, “COMBINATION THERAPY FOR CANCER” (NATIONAL UNIVERSITY OF IRELAND, GALWAY, priority 2022, published 2026)

Experiments:
Assay type in all cases: cell-based, human
MCF10A cells [1] = experiment: Flow cytometry of cell cycle distribution and DNA synthesis (EdU/DAPI)
Experimental: (c) A typical profile obtained by flow cytometry of MCF10A cells labelled with EdU and DAPI that indicates the gating applied in order to determine the percentage of cells with sub-G1 DNA content (sub-G1), G1 cells (G1), replicating early-mid S phase cells (Early-Mid S/EdU+), replicating mid-late S phase cells (Mid-Late S/EdU+), cells with S phase DNA content but not replicating (2n<& <4n/EdU−), and cells either in G2 or mitosis (G2/M).(d-f) MCF10A cells were mock treated or treated with 10 μM XL413, in the presence or absence of increasing concentrations of the CDK8 inhibitor BI-1347, for 24 hours. (d) Cells were labelled with EdU for last 30 minutes and DNA synthesis, DNA content and cell cycle distribution were assessed by flow cytometry and analysed using the gating strategy described in above (FIG. 2c). (e) Distribution of cells in the cell cycle. (f) Fluorescence intensity, proportional to EdU incorporation, in individual S phase cells. Long and short horizontal black lines indicate the median and the interquartile range, respectively, extending from the 25th to the 75th percentile for ˜3,810 cells for each condition. Data is from a single experiment.
FIG. 3: CDK8 activity is required for efficient DNA synthesis under conditions of limited CDC7 kinase activity (a-c) MCF10A cells were mock treated or treated with 31 nM BI-1347, in the presence or absence of increasing concentrations of the CDC7 inhibitors, XL413 (a-c) and TAK-931 (d-f), for 24 hours. (a and d) Cells were labelled with EdU for last 30 minutes and DNA synthesis, DNA content and cell cycle distribution were assessed by flow cytometry and analysed using the gating strategy described in FIG. 2c.c (b and e) distribution of cells in the cell cycle. (c and f) Fluorescence intensity, proportional to EdU incorporation, in individual S phase cells. Long and short horizontal black lines indicate the median and the interquartile range, respectively, extending from the 25th to the 75th percentile for ˜4,190 cells for each condition. Data is from a single experiment.
To analyse the cell cycle and DNA synthesis, nascent DNA was labelled by incubating cells with 10 μM EdU for either 20 or 30 minutes prior to harvest, washing with PBS, and then by resuspension in PBS containing 70% EtOH for 1 hour at −20° C. After a PBS wash, incorporated EdU was labelled by incubating cells in click reaction buffer (PBS containing 10 μM 6-Carboxyfluorescine-TEG-azide, 10 mM Sodium-L-ascorbate, 2 mM Copper-II-Sulphate) for 30 minutes protected from light. Cells were washed in PBS containing 1% BSA, 5% Tween 20 and then DNA stained in PBS containing 1% BSA and 1 μg/ml DAPI. All washes involve: centrifugation at 400×g for 5 minutes, removal of supernatant from pellet, resuspension in the appropriate buffer, recentrifugation and removal of supernatant from the pellet prior to the next step.
Fluorescence intensity data for 6-Carboxyfluorescine (488_530_30 nm) and DAPI (405_450_50 nm) were acquired for 10,000 single cells on a BD FACS Canto II and analysed using FlowJo software. To further analyse fluorescence intensity, proportional to EdU incorporation, for individual cells, gates were applied on DAPI-EdU biparametric dot plots to select for EdU positive S phase cells using FlowJo. According to the required analysis these gates included either all S phase cells, or only early or late S phase cells. Fluorescence intensity (488_530_30) values per cell were exported and plotted as scatter dot plots using GraphPad prism. For comparisons of mean fluorescence intensity of a cell population across three biological repeat experiments, all fluorescence intensity values were normalised to the maximum fluorescence intensity of the untreated control sample of each respective experiment to account for absolute differences in EdU staining. […]

MDA-MB-231 = experiment: as above; conditions: 31 nM BI-1347 with 1.25 μM XL413, 24 hours
Experimental: (§1) Supplemental FIG. 3: Characteristic phenotypes associated with inhibition of CDC7 and CDK8 are observed in multiple cell lines A panel of different cell lines, including: MDA-MB-468 (a-c); MDA-MB-231 (d-f); and U-2 OS (g-i), were mock treated or treated with 1.25 μM XL413 and/or 31 nM BI-1347BI-1347 for 24 hours. Cells were labelled with EdU for last 30 minutes and DNA synthesis, DNA content and cell cycle distribution were assessed by flow cytometry and analysed using the gating strategy described in FIG. 2c. (b, e and h) distribution of cells in the cell cycle. (c, f and i) Fluorescence intensity, proportional to EdU incorporation, in individual S phase cells. Long and short horizontal black lines indicate the median and the interquartile range, respectively, extending from the 25th to the 75th percentile for ˜3,922 (MDA-MB-468), ˜3,291 (MDA-MB-231), and ˜4,628 (U-2 OS) cells for each condition. Data is from a representative experiment from 3 biological repeats. […]
(§2) Fluorescence intensity data for 6-Carboxyfluorescine (488_530_30 nm) and DAPI (405_450_50 nm) were acquired for 10,000 single cells on a BD FACS Canto II and analysed using FlowJo software. To further analyse fluorescence intensity, proportional to EdU incorporation, for individual cells, gates were applied on DAPI-EdU biparametric dot plots to select for EdU positive S phase cells using FlowJo. […] Fluorescence intensity (488_530_30) values per cell were exported and plotted as scatter dot plots using GraphPad prism. For comparisons of mean fluorescence intensity of a cell population across three biological repeat experiments, all fluorescence intensity values were normalised to the maximum fluorescence intensity of the untreated control sample of each respective experiment to account for absolute differences in EdU staining. The mean fluorescence intensity values of these cell populations across three biological repeat experiments are expressed as a ratio relative to a control sample and plotted as a scatter dot plot using GraphPad prism.

U-2 OS = experiment: as above; conditions: 31 nM BI-1347 with 1.25 μM XL413, 24 hours
Experimental: as §1, §2

MDA-MB-468 = experiment: as above; conditions: 31 nM BI-1347 with 1.25 μM XL413, 24 hours
Experimental: as §1, §2

MCF10A cells [2] = experiment: Long-term cell proliferation assay, crystal violet staining; conditions: 31 nM BI-1347 alone, 7 days, compared to controls
Experimental: (a and b) MCF10A cells were plated at equal low density and then either mock treated or treated with 31 nM BI-1347, in the presence or absence of XL413 at a doses of (a) 1.25 μM or (b) 10 μM over a 7 day period. Representative images of crystal violet-stained cells are shown alongside quantitation of crystal violet intensity normalised to the untreated control.
Briefly, MCF10A cells were mock-treated or treated in the continued presence of a dual-specificity CDK8/CDK19 inhibitor, BI-1347, in the presence or absence of XL413 at two different concentrations (1.25 μM and 10 μM) for a 7-day period. Relative cell proliferation was estimated by staining cells with crystal violet and measuring staining intensities. […] Importantly the addition of BI-1347 to XL413 caused a further reduction in cell number with staining intensity decreasing by 70% and 95% respectively.
MCF10A cells were seeded at 4,000 cells per well of a 6 well plate and after 24 hours were treated with inhibitors before being incubated for 7 days at 37° C. with 5% CO2. Media was removed from the cells which were then washed with PBS and air dried before being fixed with 100% methanol for 1 hour. Following removal of methanol the plates were air-dried, stained with crystal violet staining solution (0.2% crystal violet, 25% methanol) for 1 hour at room temperature, washed with ddH2O and air-dried. Plates were scanned using a HP Scanjet 4050, to generate images of crystal violet stained cells, and crystal violet staining intensity was acquired using the Odyssey infrared imaging system and Image Studio software (LI-COR Biosciences).

[3] = CDC7 inhibitor alone at increasing concentrations, absence of CDK8/CDK19i, 24 hours
[4] = CDC7 inhibitor at increasing concentrations together with the CDK8/CDK19 inhibitor (31 nM BI-1347), 24 hours, all doses tested
[5] = BI-1347 alone at increasing concentrations, 24 hours

Row | SMILES | cell cycle distribution (MCF10A cells [1]; [3]) | rate of DNA synthesis of S phase cells (MCF10A cells [1]; [3]) | cell cycle distribution (MCF10A cells [1]; [4]) | rate of DNA synthesis (MCF10A cells [1]; [4]) | potentiation of cell cycle and DNA replication phenotypes imposed by CDC7 inhibition (MDA-MB-231) | potentiation of cell cycle and DNA replication phenotypes imposed by CDC7 inhibition (U-2 OS) | potentiation of cell cycle and DNA replication phenotypes imposed by CDC7 inhibition (MDA-MB-468) | decrease in the relative staining intensity (crystal violet) (MCF10A cells [2]) | cell cycle distribution (MCF10A cells [1]; [5]) | rate of DNA synthesis in S phase cells (MCF10A cells [1]; [5]) | increase in the potency of the CDC7 inhibitor in replication assays (MCF10A cells [1]; BI-1347 in combination with CDC7 inhibitors, decrease in rate of DNA synthesis) [fold]
1 | Cc1n[nH]cc1-c1cc2[nH]c([C@@H]3CC4CCN3CC4)nc(=O)c2s1 [TAK-931] | dose-dependent accumulation of mid-late S phase cells | corresponding decrease | more pronounced accumulation of cells in mid-late S phase | much more profound decrease | – | – | – | – | – | – | –
2 | CN(C)C(=O)Cn1ccc(-c2ccc(-c3cncc4ccccc34)cc2)c1 [BI-1347] | – | – | – | – | strong potentiation | strong potentiation | strong potentiation | approximately 30% | dose-dependent increase in G1 phase cells with a corresponding decrease in early-mid S phase cells | subtle and dose-independent decrease | ~10
